{"source": "patent US20100266567A1", "about": "“USE OF URATE OXIDASE FOR THE TREATMENT OR PROPHYLAXIS OF DISORDERS OR INDIRECT SEQUELAE OF THE HEART CAUSED BY ISCHEMIC OR REPERFUSION EVENTS” (sanofi-aventis, priority 2007, published 2010)", "key": {"isolated rat hearts": {"tested_on": "isolated rat hearts", "test": "Isolated working rat heart: coronary flow and contractility", "source_text": "As biological materials the isolated hearts of male Wistar rats were used which were purchased from our Laboratory Animal Science and Welfare (LASW). The heart function (coronary flow and contractility) was investigated on the “Isolated Working Heart” model as previously described (Itter G et al., Laboratory Animals (2005) 39; 178-193). The hearts were first perfused according to Langendorff's method with an oxygenated (95% O2, 5% CO2) noncirculating Krebs-Henseleit solution of the following compositions (mmol/L): NaCl, 118; KCl, 4.7; CaCl2, 2.5; MgSO4, 1.6; NaHCO3, 24.9; KH2PO4, 1.2; glucose, 5.5; Na-pyruvate, 2.0. A catheter placed into the pulmonary artery drained the coronary effluent perfusate that was collected for determination of coronary flow and venous PO2 measurements. The left atrium was cannulated by an incision of the left auricle. After a 15-minute equilibration period at a fixed perfusion pressure of 60 mmHg, the heart was switched into the working mode at a fixed filling pressure of 11 mmHg. Coronary flow (CF) and pressure signals (dP/dtmax) were sampled at 500 Hz, averaged every 2 seconds.\nHigh rasburicase concentrations were tested in combination with different uric acid concentrations on isolated working rat hearts for their possible adverse cardiac effects caused by the generated hydrogenperoxide (H2O2)."}, "[1]": {"tested_on": "isolated rat hearts with global ischemia and reperfusion", "test": "Isolated working rat heart with global ischemia and reperfusion: coronary flow and contractility", "source_text": "Effects on Coronary Flow and Contractility of the Heart with Global Ischemia and Reperfusion: […]"}, "[2]": {"conditions": "UA 15 mg/L (Rasb 50 μg/mL where present), 1 min before ischemia"}, "[3]": {"conditions": "UA 15 mg/L (Rasb 50 μg/mL where present), 5 min before ischemia"}, "[4]": {"conditions": "UA 15 mg/L (Rasb 50 μg/mL where present), Global Ischemia"}, "[5]": {"conditions": "UA 15 mg/L (Rasb 50 μg/mL where present), Reperf. 5 min after Ischemia"}, "[6]": {"conditions": "UA 15 mg/L (Rasb 50 μg/mL where present), Reperf. 10 min after Ischemia"}, "[7]": {"conditions": "UA 15 mg/L (Rasb 50 μg/mL where present), Reperf. 15 min after Ischemia"}, "[8]": {"conditions": "UA 30 mg/L (Rasb 50 μg/mL where present), 1 min before ischemia, Table 5"}, "[9]": {"conditions": "UA 30 mg/L (Rasb 50 μg/mL where present), 5 min before ischemia, Table 5"}, "[10]": {"conditions": "UA 30 mg/L (Rasb 50 μg/mL where present), Global Ischemia, Table 5"}, "[11]": {"conditions": "UA 30 mg/L (Rasb 50 μg/mL where present), Reperf. 5 min after Ischemia, Table 5"}, "[12]": {"conditions": "UA 30 mg/L (Rasb 50 μg/mL where present), Reperf. 10 min after Ischemia, Table 5"}, "[13]": {"conditions": "UA 30 mg/L (Rasb 50 μg/mL where present), Reperf. 15 min after Ischemia, Table 5"}, "[14]": {"conditions": "addition of ascorbic acid 1 mM to Rasb 50 μg/mL + UA 30 mg/L"}}, "data": [{"molecule": "OO", "note": "[H2O2, hydrogenperoxide]", "values": [{"measurement": "contractility (dP/dtmax)", "setting": "isolated rat hearts; H2O2 10 μM, n = 4", "value": "4774 ± 185", "unit": "mmHg/s"}, {"measurement": "coronary flow (CF)", "setting": "isolated rat hearts; H2O2 10 μM, n = 4", "value": "13.89 ± 0.55", "unit": "mL/min"}, {"measurement": "contractility (dP/dtmax)", "setting": "isolated rat hearts; H2O2 30 μM, n = 4", "value": "4469 ± 167", "unit": "mmHg/s"}, {"measurement": "coronary flow (CF)", "setting": "isolated rat hearts; H2O2 30 μM, n = 4", "value": "15.21 ± 1", "unit": "mL/min"}, {"measurement": "contractility (dP/dtmax)", "setting": "isolated rat hearts; H2O2 100 μM, n = 4", "value": "4573 ± 268", "unit": "mmHg/s"}, {"measurement": "coronary flow (CF)", "setting": "isolated rat hearts; H2O2 100 μM, n = 4", "value": "15.7 ± 1.3", "unit": "mL/min"}, {"measurement": "contractility (dP/dtmax)", "setting": "isolated rat hearts; H2O2 200 μM, n = 4", "value": "1698 ± 69", "unit": "mmHg/s"}, {"measurement": "coronary flow (CF)", "setting": "isolated rat hearts; H2O2 200 μM, n = 4", "value": "10.42 ± 0.3", "unit": "mL/min"}, {"measurement": "effect on coronary flow and contractility (in words)", "setting": "isolated rat hearts; concentrations higher than 100 μM H2O2", "value": "strongly reduced"}]}, {"molecule": "O=c1[nH]c(=O)c2[nH]c(=O)[nH]c2[nH]1", "note": "[Uric Acid, Uric acid]", "values": [{"measurement": "contractility (dP/dtmax)", "setting": "isolated rat hearts; male, Wistar, rat, 6 mg/L", "value": "3867 ± 327", "unit": "mmHg/s"}, {"measurement": "coronary flow (CF)", "setting": "isolated rat hearts; male, Wistar, rat, 6 mg/L", "value": "13.51 ± 1.02", "unit": "mL/min"}, {"measurement": "contractility (dP/dtmax)", "setting": "[1]; [2]", "value": "3608 ± 318", "unit": "mmHg/s"}, {"measurement": "coronary flow (CF)", "setting": "[1]; [2]", "value": "12.82 ± 0.75", "unit": "mL/min"}, {"measurement": "contractility (dP/dtmax)", "setting": "[1]; [3]", "value": "3600 ± 250", "unit": "mmHg/s"}, {"measurement": "coronary flow (CF)", "setting": "[1]; [3]", "value": "13.28 ± 0.7", "unit": "mL/min"}, {"measurement": "contractility (dP/dtmax)", "setting": "[1]; [4]", "value": "61 ± 1", "unit": "mmHg/s"}, {"measurement": "coronary flow (CF)", "setting": "[1]; [4]", "value": "0.38 ± 0.06", "unit": "mL/min"}, {"measurement": "contractility (dP/dtmax)", "setting": "[1]; [5]", "value": "1057 ± 496", "unit": "mmHg/s"}, {"measurement": "coronary flow (CF)", "setting": "[1]; [5]", "value": "4.47 ± 1.69", "unit": "mL/min"}, {"measurement": "contractility (dP/dtmax)", "setting": "[1]; [6]", "value": "1284 ± 667", "unit": "mmHg/s"}, {"measurement": "coronary flow (CF)", "setting": "[1]; [6]", "value": "4.71 ± 1.86", "unit": "mL/min"}, {"measurement": "contractility (dP/dtmax)", "setting": "[1]; [7]", "value": "1403 ± 736", "unit": "mmHg/s"}, {"measurement": "coronary flow (CF)", "setting": "[1]; [7]", "value": "4.73 ± 1.85", "unit": "mL/min"}, {"measurement": "contractility (dP/dtmax)", "setting": "[1]; [8]", "value": "4017 ± 437", "unit": "mmHg/s"}, {"measurement": "coronary flow (CF)", "setting": "[1]; [8]", "value": "13.11 ± 0.88", "unit": "mL/min"}, {"measurement": "contractility (dP/dtmax)", "setting": "[1]; [9]", "value": "4020 ± 350", "unit": "mmHg/s"}, {"measurement": "coronary flow (CF)", "setting": "[1]; [9]", "value": "13.33 ± 0.7", "unit": "mL/min"}, {"measurement": "contractility (dP/dtmax)", "setting": "[1]; [10]", "value": "59 ± 2", "unit": "mmHg/s"}, {"measurement": "coronary flow (CF)", "setting": "[1]; [10]", "value": "0.31 ± 0.02", "unit": "mL/min"}, {"measurement": "contractility (dP/dtmax)", "setting": "[1]; [11]", "value": "2224 ± 418", "unit": "mmHg/s"}, {"measurement": "coronary flow (CF)", "setting": "[1]; [11]", "value": "8.34 ± 1.88", "unit": "mL/min"}, {"measurement": "contractility (dP/dtmax)", "setting": "[1]; [12]", "value": "2898 ± 314", "unit": "mmHg/s"}, {"measurement": "coronary flow (CF)", "setting": "[1]; [12]", "value": "9.16 ± 1.29", "unit": "mL/min"}, {"measurement": "contractility (dP/dtmax)", "setting": "[1]; [13]", "value": "3192 ± 273", "unit": "mmHg/s"}, {"measurement": "coronary flow (CF)", "setting": "[1]; [13]", "value": "9.25 ± 0.63", "unit": "mL/min"}]}, {"molecule": "O=C1O[C@H]([C@@H](O)CO)C(O)=C1O", "note": "[ascorbic acid, Ascorbic acid]", "values": [{"measurement": "contractility after ischemia/reperfusion (in words)", "setting": "[1]; [14]", "value": "further improvement"}, {"measurement": "coronary flow after ischemia/reperfusion (in words)", "setting": "[1]; [14]", "value": "normalization"}]}, {"molecule": "rasburicase (protein, listed as Aspergillus flavus, homotetramer, recombinant urate oxidase enzyme from genetically modified Saccharomyces cerevisiae with Aspergillus flavus cDNA) SAVKAARYGKDNVRVYKVHKDEKTGVQTVYEMTVCVLLEGEIETSYTKADNSVIVATDSIKNTIYITAKQNPVTPPELFGSILGTHFIEKYNHIHAAHVNIVCHRWTRMDIDGKPHPHSFIRDSEEKRNVQVDVVEGKGIDIKSSLSGLTVLKSTNSQFWGFLRDEYTTLKETWDRILSTDVDATWQWKNFSGLQEVRSHVPKFDATWATAREVTLKTFAEDNSASVQATMYKMAEQILARQQLIETVEYSLPNKHYFEIDLSWHKGLQNTGKNAEVFAPQSDPNGLIKCTVGRSSLKSKL", "values": [{"measurement": "heart function (in words)", "setting": "[1]; in the presence of uric acid, present prior and during ischemia/reperfusion", "value": "even improved"}, {"measurement": "cardiodynamics after ischemia (in words)", "setting": "[1]; ischemia/reperfusion experiments", "value": "even improved"}, {"measurement": "recovery after ischemia/reperfusion (in words)", "setting": "[1]; rasburicase 50 μg/mL in combination with uric acid 15 or 30 mg/L", "value": "concentration-dependently improved"}]}]}
